Experimental data published in patent US10900091B2, “miR-133a as a marker for colorectal cancer” (The Chinese University of Hong Kong, priority 2019, dated 2021).
“Also recorded” adds a separate entry of the source.

How the values were obtained:
stage IV CRC patients = assay: Response of stage IV CRC patients to oxaliplatin-based first-line treatment (RECIST); format: in vivo, human; details: 42 stage IV CRC patients, oxaliplatin-based first-line therapy
From the text: A cohort of 42 pairs of tumor and adjacent normal tissue FFPE blocks obtained from stage IV CRC patients who had received oxaliplatin-based treatment as first-line therapy at Prince of Wales Hospital between 2003 and 2010, and with known clinico-oncologic outcomes were identified from the prospectively collected database. Patients were classified into responders and non-responders group according to RECIST guideline (7). Responders are defined as the patients achieving complete response (CR) and partial response (PR), and non-responder group as patients with stable disease (SD) and progressive disease (PD). Overall survival (OS) was calculated from the operation day to the date of death or the last visit with censoring. The progress free survival (PFS) during first-line chemotherapy was determined from the operation day to the first-line progression as documented by either CT scan, positron emission tomography/CT scan, or Carcinoembryonic antigen (CEA). Forty-six mCRC patients received oxaliplatin-based treatment as first-line therapy at Beijing Oncology Hospital were used as a validation cohort (BJ cohort). […]
miR-133a level was next evaluated in 42 pairs paraffin blocks of tumor and adjacent normal tissues from stage IV CRC patients who had received oxaliplatin-based treatment. […]

human ABCC1 3′-UTR = assay: Dual-luciferase reporter assay, ABCC1 3′UTR; format: cell-based
Procedure: (§1) Wild-type or mutanted human ATP7B, ABCC1 and GCLC 3′-UTR were cloned into pMIR-REPORT vector (Thermo Fisher Scientific) at the SacI and SpeI sites, respectively. Co-transfection of reporter plasmids and miRNA in 24-well plates were carried out with lipofectamine 2000 as described by the manufacture. Per well, 195 ng luciferase report plasmid, 5 ng pRL-cytomegalovirus (CMV) vector and 15 pmole miRNA were applied. Cells were harvested 48 h post-transfection and luciferase activities were analyzed by the dual-luciferase reporter assay system (Promega, Madison, Wis.).
(§2) To characterize the chemosensitizing property of miR-133a to oxaliplatin treatment, miR-133a targets that regulated the metabolism of oxaliplatin were searched for. Increased drug efflux and activation of detoxification system are two major aspects that induce Platinum-based drugs resistance (15). Previous studies indicate that ATPase Cu++ transporting beta polypeptide (ATP7B), ATP-binding cassette sub-family C member 1 (ABCC1) and γ-glutamylcysteine liganse (GCLC) regulated Platinum-based drugs efflux and detoxification (16-21). […] Furthermore, their predicted 3′UTR binding sites, as well as their mutant form, were attached to firefly luciferase reporter gene, respectively. miR-133a repressed wild-type ATP7B, ABCC1, and GCLC-3′UTR reporter activity for about 64%, 56% and 42%, respectively (FIG. 5A, P<0.05).

human ATP7B 3′-UTR = assay: Dual-luciferase reporter assay, ATP7B 3′UTR; format: cell-based
Procedure: as §1, §2

ABCC1 = assay: Endogenous ABCC1 expression after miR-133a transfection (qPCR, western blot); format: cell-based, human
Procedure: (§3) Human miR-133a precursor (PM10413) was purchased from Thermo Fisher Scientific. […] Cells were transfected with miRNAs using Lipofectamine 2000 (Invitrogene). Cells transfected with miRNA were harvested 12 h to 48 h post-transfection.
(§4) Protein concentration was measured by the Bradford DC protein assay (Bio-Rad, Hercules, Calif.). 5-20 μg of protein from each sample were separated on 10% Bis-Tris-polyacrylamide gel through electrophoresis and blotted onto nitrocellulose membranes (GE Healthcare, Piscataway, N.J.). Blots were immunostained with primary antibodies at 4° C. overnight and secondary antibody at room temperature for 1 h. Protein was visualized using ECL Plus Western Blotting Detection Reagents (GE Healthcare). Independent experiments were performed at least twice.
(§5) To characterize the chemosensitizing property of miR-133a to oxaliplatin treatment, miR-133a targets that regulated the metabolism of oxaliplatin were searched for. Increased drug efflux and activation of detoxification system are two major aspects that induce Platinum-based drugs resistance (15). Previous studies indicate that ATPase Cu++ transporting beta polypeptide (ATP7B), ATP-binding cassette sub-family C member 1 (ABCC1) and γ-glutamylcysteine liganse (GCLC) regulated Platinum-based drugs efflux and detoxification (16-21). […]

GCLC = assay: Endogenous GCLC expression after miR-133a transfection (qPCR, western blot); format: cell-based, human
Procedure: as §3, §4, §5

human GCLC 3′-UTR = assay: Dual-luciferase reporter assay, GCLC 3′UTR; format: cell-based
Procedure: as §1, §2

[1] = tested on: CRC cell lines (HT29, SW1116, HCT116, HCT116p53−/−, RKO, DLD1); assay: MTT cell viability assay: oxaliplatin sensitization after ectopic miR-133a expression; format: cell-based, human; details: CRC cell lines with ectopic expression of miR-133a; oxaliplatin treatment; FIG. 4
Procedure: as §3
After 24 h of transfection, cells were collected and seeded (500-1000/well) in a fresh 96-well plate for 5 days. Cell viability was determined using the conversion of 3-(4,5-dimethylthiazol-2-yl)-2,5-diphenyltetrazolium bromide (MTT) to formazan via mitochondrial oxidation. MTT solution was then added to each well at a final concentration of 0.2 mg/ml per well and the plates were incubated at 37° C. for another 1 h. After incubation, 200 μl of dimethyl sulfoxide was added to each well to dissolve the formazan formed and the absorbance was measured at 570 nm using a spectrophotometer. All the experiments were repeated in three independent experiments in triplicate.
To validate the role of miR-133a in oxaliplatin sensitization in vitro, miR-133a was expressed in the microsatellite stable (HT29, SW1116) and microsatellite instable CRC cell lines (HCT116, HCT116^p53−/−, RKO, DLD1), respectively. 50% inhibitory concentration (IC50) of each cell lines was calculated by means of MTT assay. Restoration of miR-133a was sufficient to result in a 1.5 to 2.9 fold sensitization to oxaliplatin treatment in all the tested cell lines (FIG. 4).

ATP7B = assay: Endogenous ATP7B expression after miR-133a transfection (qPCR, western blot); format: cell-based, human
Procedure: as §3, §4, §5

[2] = qPCR, HCT116 and DLD1 (also HEK293)
[3] = western blot, HCT116, DLD1 and HEK293 (293T in the source)

Row | Compound | objective response rate (stage IV CRC patients) [%] | effect on mutant ABCC1-3′UTR reporter activity (human ABCC1 3′-UTR; mutant 3′UTR) | repression of wild-type ABCC1-3′UTR reporter activity (human ABCC1 3′-UTR; wild-type 3′UTR, P<0.05) [%] | effect on mutant ATP7B-3′UTR reporter activity (human ATP7B 3′-UTR; mutant 3′UTR) | repression of wild-type ATP7B-3′UTR reporter activity (human ATP7B 3′-UTR; wild-type 3′UTR, P<0.05) | ABCC1 mRNA level (ABCC1; [2]) | ABCC1 protein level (ABCC1; [3]) | GCLC mRNA level (GCLC; [2]) | GCLC protein level (GCLC; [3]) | effect on mutant GCLC-3′UTR reporter activity (human GCLC 3′-UTR; mutant 3′UTR) | repression of wild-type GCLC-3′UTR reporter activity (human GCLC 3′-UTR; wild-type 3′UTR, P<0.05) [%] | IC50 compared with the control group [1] | ATP7B mRNA level (ATP7B; [2]) | ATP7B protein level (ATP7B; [3])
1 | O=C1[O][Pt]2([NH][C@@H]3CCCC[C@H]3[NH]2)[O]C1=O [oxaliplatin, Oxaliplatin] | 29 | – | – | – | – | – | – | – | – | – | – | – | – | –
2 | hsa-miR-133a-3p (UUUGGUCCCCUUCAACCAGCUG; precursor form, further chemistry not given here; listed as Homo sapiens) [Human miR-133a precursor purchased from Thermo Fisher Scientific, transfected into cells] | – | no inhibition effect | ~56 | no inhibition effect | about 64% | significantly suppressed; also recorded: remarkably reduced; also recorded: decreased | remarkably reduced; also recorded: decreased | significantly suppressed; also recorded: remarkably reduced; also recorded: decreased | remarkably reduced; also recorded: decreased | no inhibition effect | ~42 | lower | significantly suppressed; also recorded: remarkably reduced; also recorded: decreased | remarkably reduced; also recorded: decreased
